Data on 6 compounds can be found in patent US8859557B2, “Substituted oxindole derivatives and their use as vasopressin receptor ligands” (Abbott GmbH & Co. KG, priority 2006, dated 2014).

pKi: −log10 of the molar value.

For data set [1], the target named is T1, human vasopressin V1b receptor (Homo sapiens, UniProt P47901).
T1 construct: expressed in transfected cells; host or cells: CHO-K1 (cell line hV1b-3H2_CHO), membrane preparation
T1 sequence (P47901 1-424): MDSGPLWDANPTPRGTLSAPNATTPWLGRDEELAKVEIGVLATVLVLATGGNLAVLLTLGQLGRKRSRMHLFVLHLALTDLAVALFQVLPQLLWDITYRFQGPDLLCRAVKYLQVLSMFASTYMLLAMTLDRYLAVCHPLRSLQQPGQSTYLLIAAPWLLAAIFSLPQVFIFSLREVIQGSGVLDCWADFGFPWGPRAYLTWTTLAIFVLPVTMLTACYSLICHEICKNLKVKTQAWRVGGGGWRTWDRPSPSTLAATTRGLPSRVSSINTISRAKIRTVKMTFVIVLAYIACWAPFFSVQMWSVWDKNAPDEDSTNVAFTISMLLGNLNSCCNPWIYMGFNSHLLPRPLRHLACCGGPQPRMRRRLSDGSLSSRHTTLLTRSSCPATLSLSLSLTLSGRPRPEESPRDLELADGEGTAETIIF
Briefly: Vasopressin V1b receptor binding assay. Particulars: displacement of 3H-AVP, membranes of CHO-K1 cells with human V1b receptor. As to the method:
Methods for Determining the Biological Activity Vasopressin V1b Receptor Binding Assay: Substances:
This series of DMSO predilutions was diluted 1:10 with assay buffer. The substance concentration was again diluted 1:5 in the assay mixture (2% DMSO in the mixture).
All determinations were carried out as triplicate determinations.

Data set [2] concerns the target T2, recombinant human oxytocin receptors (Homo sapiens, UniProt P30559).
T2 construct: expressed in transfected cells; host or cells: HEK-293, transient expression; lysed and homogenized cells
T2 sequence (P30559 1-389): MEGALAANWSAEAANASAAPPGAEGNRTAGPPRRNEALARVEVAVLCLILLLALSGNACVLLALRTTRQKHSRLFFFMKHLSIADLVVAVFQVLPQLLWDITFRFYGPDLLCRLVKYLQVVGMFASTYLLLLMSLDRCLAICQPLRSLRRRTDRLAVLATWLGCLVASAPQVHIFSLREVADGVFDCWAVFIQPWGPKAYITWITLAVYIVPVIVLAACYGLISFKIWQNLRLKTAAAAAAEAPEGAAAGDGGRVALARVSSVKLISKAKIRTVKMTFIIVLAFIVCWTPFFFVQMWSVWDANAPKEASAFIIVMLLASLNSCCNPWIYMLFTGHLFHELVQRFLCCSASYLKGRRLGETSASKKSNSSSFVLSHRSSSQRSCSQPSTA
As to the kind of experiment: Oxytocin receptor binding assay. Particulars: selectivity for V1b over oxytocin receptor, quotient of Ki values. The method, then:
Oxytocin Receptor Binding Assay
Confluent HEK-293 cells with transiently expressing recombinant human oxytocin receptors were centrifuged at 750×g and at room temperature for 5 minutes. The residue was taken up in ice-cold lysis buffer (50 mM Tris-HCl, 10% glycerol, pH 7.4 and Roche Complete Protease Inhibitor) and subjected to an osmotic shock at 4° C. for 20 minutes. The lyzed cells were then centrifuged at 750×g and at 4° C. for 20 minutes, the residue was taken up in incubation buffer, and aliquots of 10^7 cells/ml were prepared. The aliquots were frozen at −80° C. until used.
On the day of the experiment, the cells were thawed, diluted with incubation buffer and homogenized using a Multipette Combitip (Eppendorf, Hamburg). […] The nonspecific binding was determined with 10^−6 M oxytocin (Bachem AG, H2510). Determinations in triplicate were set up. Bound and free radioligand were separated by filtration under vacuum with Whatman GF/B glass fibre filters using a Skatron cell harvester 7000. The bound radioactivity was determined by liquid scintillation measurement in a Tricarb beta counter, model 2000 or 2200CA (Packard).

Data set [3] can be described thus: Determination of the microsomal half-life / microsomal clearance (human). Particulars: pH 7.4; human liver microsomes, 0.5 μM test substance, 0.25 mg microsomal protein/ml; read-out: Human Mikrosomal Clearance. The data set is classed as in vitro ADME. As to the method:
The metabolic stability of a compound can be determined, for example, by incubating a solution of this compound with liver microsomes from particular species (for example rat, dog or human) and determining the half-life of the compound under these conditions (RS Obach, Curr Opin Drug Discov Devel. 2001, 4, 36-44). It is possible to conclude from an observed larger half-life that the metabolic stability of the compound is improved. The stability in the presence of human liver microsomes is of particular interest since it makes it possible to predict the metabolic degradation of the compound in the human liver. Compounds with increased metabolic stability (determined in the liver microsome test) are therefore probably also degraded more slowly in the liver. The slower metabolic degradation in the liver can lead to higher and/or longer-lasting concentrations (effective levels) of the compound in the body, so that the elimination half-life of the compounds according to the invention is increased. Increased and/or longer-lasting effective levels may lead to a better efficacy of the compound in the treatment or prophylaxis of various vasopressin-dependent diseases. An improved metabolic stability may additionally lead to an increased bioavailability after oral administration, because the compound is subjected, after being absorbed in the intestine, to less metabolic degradation in the liver (so-called first pass effect). An increased oral bioavailability may, because the concentration (effective level) of the compound is increased, lead to a better efficacy of the compound after oral administration.
Determination of the Microsomal Half-Life:
The metabolic stability of the compounds of the invention was determined in the following assay.
The test substances are incubated in a concentration of 0.5 μM as follows:
0.5 μM test substance is preincubated together with liver microsomes of various species (rat, human or other species) (0.25 mg of microsomal protein/ml) in 0.05M potassium phosphate buffer pH 7.4 in microtitre plates at 37° C. for 5 min. The reaction is started by adding NADPH (1 mg/ml). 50 μl aliquots are taken after 0, 5, 10, 15, 20 and 30 min, and the reaction is stopped immediately with the same volume of acetonitrile and cooled down. The samples are frozen until analyzed. Using MSMS, the remaining concentration of undegraded test substance is determined. From the […] of the test substance signal/time unit curve, the half-life (T½) is determined, where the half-life of the test substance can be calculated, assuming first order kinetics, from the decrease in the concentration of the compound with time. The microsomal clearance (mCl) is calculated as mCl=In2/T½/(content of microsomal protein in mg/ml)×1000 [ml/min/mg] (modified according to the literature references: Di, The Society for Biomoleculaur Screening, 2003, 453-462; Obach, DMD, 1999 vol 27. N 11, 1350-1359).

Data set [4] has as its target human vasopressin V1a receptor (Homo sapiens, UniProt P37288). As to the kind of experiment: Vasopressin V1a receptor binding assay. Particulars: selectivity for V1b over V1a, quotient of Ki values.

Chain of human vasopressin V1a receptor (P37288 whole entry): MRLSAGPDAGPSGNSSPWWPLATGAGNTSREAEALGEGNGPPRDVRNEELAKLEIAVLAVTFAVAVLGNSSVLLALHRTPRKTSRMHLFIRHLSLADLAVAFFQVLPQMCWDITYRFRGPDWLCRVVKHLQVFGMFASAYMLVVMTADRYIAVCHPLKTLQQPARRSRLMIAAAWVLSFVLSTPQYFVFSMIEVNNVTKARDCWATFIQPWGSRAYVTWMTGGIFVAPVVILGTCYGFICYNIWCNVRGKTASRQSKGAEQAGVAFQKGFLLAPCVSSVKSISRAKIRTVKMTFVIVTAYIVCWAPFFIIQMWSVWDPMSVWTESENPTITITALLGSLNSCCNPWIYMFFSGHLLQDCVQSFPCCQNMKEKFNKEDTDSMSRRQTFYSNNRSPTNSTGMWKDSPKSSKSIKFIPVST

Consider `CCOc1ncccc1[C@]1(NC(=O)N2CCN(C3CCN(C)CC3)CC2)C(=O)N(S(=O)(=O)c2ccc(OC)cc2OC)c2ccc(C#N)cc21` [Example 1B, (−)-N-[5-Cyano-1-[(2,4-dimethoxyphenyl)sulphonyl]-3-(2-ethoxypyridin-3-yl)-2-oxo-2,3-dihydro-1H-indol-3-yl]-4-(1-methylpiperidin-4-yl)piperazine-1-carboxamide], for which the pKi in data set [1] was more than 8.00. The “Ki(h-OT)/Ki(h-V1b)” value in data set [2] was “+++ (>50)”. Besides, in data set [3], the microsomal CLint at 0.5 μM was less than 60 µL/min/mg. The “Ki(h-V1a)/Ki(h-V1b)” value in data set [4] is “+++ (>100)”.
As for `CCOc1ncccc1C1(NC(=O)N2CCN(C3CCNCC3)CC2)C(=O)N(S(=O)(=O)c2ccc(OC)cc2OC)c2ccc(C#N)cc21.O=C(O)C(F)(F)F.O=C(O)C(F)(F)F` (racemic) [Example 25, N-[5-Cyano-1-[(2,4-dimethoxyphenyl)sulphonyl]-3-(2-ethoxypyridin-3-yl)-2-oxo-2,3-dihydro-1H-indol-3-yl]-4-piperidin-4-ylpiperazine-1-carboxamide bis(trifluoroacetate)], in data set [1], the pKi was more than 8.00. Also, the “Ki(h-OT)/Ki(h-V1b)” value in data set [2] is recorded as “++ (>25-50)”. Moreover, the microsomal CLint at 0.5 μM in data set [3] was less than 60 µL/min/mg. Further, the “Ki(h-V1a)/Ki(h-V1b)” value in data set [4] is on record as “+++ (>100)”.
Compound `CCOc1ncccc1C1(NC(=O)N2CCC(N3CCNCC3)CC2)C(=O)N(S(=O)(=O)c2ccc(OC)cc2OC)c2ccc(C#N)cc21` (racemic) [Example 55, N-[5-Cyano-1-[(2,4-dimethoxyphenyl)sulphonyl]-3-(2-ethoxypyridin-3-yl)-2-oxo-2,3-dihydro-1H-indol-3-yl]-4-piperazin-1-ylpiperidine-1-carboxamide] showed a pKi in data set [1] of more than 8.00. In data set [2], the “Ki(h-OT)/Ki(h-V1b)” value is “++ (>25-50)”. The microsomal CLint at 0.5 μM in data set [3] was 60 to 120 µL/min/mg. In data set [4], the “Ki(h-V1a)/Ki(h-V1b)” value was “+++ (>100)”.
On to `CCOc1ncccc1C1(NC(=O)N2CCC(N3CCN(C)CC3)CC2)C(=O)N(S(=O)(=O)c2ccc(OC)cc2OC)c2ccc(C#N)cc21` (racemic) [Example 31, N-[5-Cyano-1-[(2,4-dimethoxyphenyl)sulphonyl]-3-(2-ethoxypyridin-3-yl)-2-oxo-2,3-dihydro-1H-indol-3-yl]-4-(4-methylpiperazin-1-yl)piperidine-1-carboxamide], for which, in data set [1], the pKi is more than 8.00. Moreover, the “Ki(h-OT)/Ki(h-V1b)” value in data set [2] is recorded as “+++ (>50)”. The microsomal CLint at 0.5 μM in data set [3] was 60 to 120 µL/min/mg. In addition, in data set [4], the “Ki(h-V1a)/Ki(h-V1b)” value is “+++ (>100)”.
For the compound `CCOc1ncccc1C1(NC(=O)N2CCN(C3CCN(C)CC3)CC2)C(=O)N(S(=O)(=O)c2ccccc2)c2ccc(C#N)cc21` (racemic) [Example 4, N-[5-Cyano-3-(2-ethoxypyridin-3-yl)-2-oxo-1-(phenylsulphonyl)-2,3-dihydro-1H-indol-3-yl]-4-(1-methylpiperidin-4-yl)piperazine-1-carboxamide], the pKi in data set [1] is 7.30 to 8.00. Moreover, the “Ki(h-OT)/Ki(h-V1b)” value in data set [2] is “++ (>25-50)”. The microsomal CLint at 0.5 μM in data set [3] was less than 60 µL/min/mg. Moreover, the “Ki(h-V1a)/Ki(h-V1b)” value in data set [4] was “++ (>50-100)”.
For `CCOc1ncccc1C1(NC(=O)N2CCC(N3CCN(CC)CC3)CC2)C(=O)N(S(=O)(=O)c2ccc(OC)cc2OC)c2ccc(C#N)cc21` (single isomer, unassigned) [Example 37B, (−)-N-[5-Cyano-1-[(2,4-dimethoxyphenyl)sulphonyl]-3-(2-ethoxypyridin-3-yl)-2-oxo-2,3-dihydro-1H-indol-3-yl]-4-(4-ethylpiperazin-1-yl)piperidine-1-carboxamide], the pKi in data set [1] was more than 8.00. In data set [2], the “Ki(h-OT)/Ki(h-V1b)” value is “+++ (>50)”. Moreover, the microsomal CLint at 0.5 μM in data set [3] is less than 60 µL/min/mg. In addition, in data set [4], the “Ki(h-V1a)/Ki(h-V1b)” value is reported as “+++ (>100)”.
